# Experimental data reported in ChEMBL document CHEMBL4295262, “Evaluation of the utility of stem-cell derived cardiomyocytes for drug proarrhythmic potential” (2019).
# How the values were obtained:
# Conditions in all cases: human, ipsc-cm
# [1] = (§1) Electrical activity assay on cell lines treated with a given drug. DMSO was used as a vehicle and a control, unblinded dofetilide was used as a control.; type: ADME, cell-based
# [2] = as §1
# [3] = as §1; remark: listed apart in the source
# [4] = as §1; remark: listed apart in the source
# [5] = as §1; type: ADME, cell-based; remark: listed apart in the source
# [6] = as §1; type: ADME, cell-based; parameters: FPDc: unit not given here
# [7] = as §1; remark: listed apart in the source
# [8] = 0.009507 µM, concentration (um) 0.00950736 uM
# [9] = 0.03004 µM, concentration (um) 0.0300433 uM
# [10] = 0.09494 µM, concentration (um) 0.0949367 uM
# [11] = 0.3 µM, concentration (um) 0.3 uM
# [12] = 0.001 µM, concentration (um) 0.001 uM
# [13] = 0.01 µM, concentration (um) 0.01 uM
# [14] = 0.1 µM, concentration (um) 0.1 uM
structure (smiles),measurement,setting,value
CCOC(=O)C1=C(C)NC(C)=C(C(=O)OC)C1c1cccc([N+](=O)[O-])c1 (stereo not drawn) [NITRENDIPINE],FPD measurement,[1]; [8],39.69 FPDc
same,FPDc,[1]; [8],6 Values Out Of 6 Were Excluded Due To Quiescence Or 0 Fpdc
same,FPDc,[1]; [9],6 Values Out Of 6 Were Excluded Due To Quiescence Or 0 Fpdc
same,FPDc,[1]; [10],6 Values Out Of 6 Were Excluded Due To Quiescence Or 0 Fpdc
same,FPDc,[1]; [11],6 Values Out Of 6 Were Excluded Due To Quiescence Or 0 Fpdc
same,FPD measurement,[2]; 0.009507 µM,1 Values Out Of 1 Were Excluded Due To Quiescence Or 0 Fpdc
same,FPDc,[2]; 0.009507 µM,1 Values Out Of 1 Were Excluded Due To Quiescence Or 0 Fpdc
same,FPD measurement,[2]; 0.03004 µM,1 Values Out Of 1 Were Excluded Due To Quiescence Or 0 Fpdc
same,FPDc,[2]; 0.03004 µM,1 Values Out Of 1 Were Excluded Due To Quiescence Or 0 Fpdc
same,FPD measurement,[2]; 0.09494 µM,1 Values Out Of 1 Were Excluded Due To Quiescence Or 0 Fpdc
same,FPDc,[2]; 0.09494 µM,1 Values Out Of 1 Were Excluded Due To Quiescence Or 0 Fpdc
same,FPD measurement,[2]; 0.3 µM,1 Values Out Of 1 Were Excluded Due To Quiescence Or 0 Fpdc
same,FPDc,[2]; 0.3 µM,1 Values Out Of 1 Were Excluded Due To Quiescence Or 0 Fpdc
same,APDc,[3]; 0.009507 µM,66.7
same,FPD measurement,[3]; 0.009507 µM,66.7 FPDc
same,APDc,[3]; 0.03004 µM,75.75
same,FPD measurement,[3]; 0.03004 µM,75.75 FPDc
same,APDc,[3]; 0.09494 µM,More Than Half The Wells Had A Quiescence Event Or Apdc Readings Of 0
same,FPD measurement,[3]; 0.09494 µM,More Than Half The Wells Had A Quiescence Event Or Apdc Readings Of 0
same,APDc,[3]; 0.3 µM,More Than Half The Wells Had A Quiescence Event Or Apdc Readings Of 0
same,FPD measurement,[3]; 0.3 µM,More Than Half The Wells Had A Quiescence Event Or Apdc Readings Of 0
same,FPD measurement,[4]; 0.009507 µM,5 Values Out Of 5 Were Excluded Due To Quiescence Or 0 Apdc
same,FPDc,[4]; 0.009507 µM,63.48
same,FPD measurement,[4]; 0.03004 µM,5 Values Out Of 5 Were Excluded Due To Quiescence Or 0 Apdc
same,FPDc,[4]; 0.03004 µM,45.72
same,FPDc,[4]; 0.09494 µM,31.81
same,FPD measurement,[4]; 0.3 µM,5 Values Out Of 5 Were Excluded Due To Quiescence Or 0 Apdc
same,FPDc,[4]; 0.3 µM,19.65
same,FPD measurement,[5]; [8],More Than Half The Wells Had A Quiescence Event Or Apdc Readings Of 0
same,FPDc,[5]; [8],More Than Half The Wells Had A Quiescence Event Or Fpdc Readings Of 0
same,FPD measurement,[5]; [9],More Than Half The Wells Had A Quiescence Event Or Apdc Readings Of 0
same,FPDc,[5]; [9],More Than Half The Wells Had A Quiescence Event Or Fpdc Readings Of 0
same,FPD measurement,[5]; [10],More Than Half The Wells Had A Quiescence Event Or Apdc Readings Of 0
same,FPDc,[5]; [10],More Than Half The Wells Had A Quiescence Event Or Fpdc Readings Of 0
same,FPD measurement,[5]; [11],5 Values Out Of 5 Were Excluded Due To Quiescence Or 0 Apdc
same,FPDc,[5]; [11],5 Values Out Of 5 Were Excluded Due To Quiescence Or 0 Fpdc
CC(C)(C)c1ccc(C(O)CCCN2CCC(C(O)(c3ccccc3)c3ccccc3)CC2)cc1 (stereo not drawn) [TERFENADINE],FPD measurement,[1]; [12],48.77 FPDc
same,FPDc,[1]; [12],6 Values Out Of 6 Were Excluded Due To Quiescence Or 0 Fpdc
same,FPD measurement,[1]; [13],52.11 FPDc
same,FPDc,[1]; [13],6 Values Out Of 6 Were Excluded Due To Quiescence Or 0 Fpdc
same,FPD measurement,[1]; [14],71.18 FPDc
same,FPDc,[1]; [14],6 Values Out Of 6 Were Excluded Due To Quiescence Or 0 Fpdc
same,FPDc,"[1]; 1 µM, concentration (um) 1 uM",6 Values Out Of 6 Were Excluded Due To Quiescence Or 0 Fpdc
same,FPD measurement,[2]; 0.001 µM,1 Values Out Of 1 Were Excluded Due To Quiescence Or 0 Fpdc
same,FPDc,[2]; 0.001 µM,1 Values Out Of 1 Were Excluded Due To Quiescence Or 0 Fpdc
same,FPD measurement,[2]; 0.01 µM,1 Values Out Of 1 Were Excluded Due To Quiescence Or 0 Fpdc
same,FPDc,[2]; 0.01 µM,1 Values Out Of 1 Were Excluded Due To Quiescence Or 0 Fpdc
same,FPD measurement,[2]; 0.1 µM,1 Values Out Of 1 Were Excluded Due To Quiescence Or 0 Fpdc
same,FPDc,[2]; 0.1 µM,1 Values Out Of 1 Were Excluded Due To Quiescence Or 0 Fpdc
same,FPD measurement,[2]; 1 µM,1 Values Out Of 1 Were Excluded Due To Quiescence Or 0 Fpdc
same,FPDc,[2]; 1 µM,1 Values Out Of 1 Were Excluded Due To Quiescence Or 0 Fpdc
same,FPDc,[4]; 0.001 µM,67.41
same,FPDc,[4]; 0.01 µM,65.79
same,FPDc,[4]; 0.1 µM,66.77
same,FPDc,[4]; 1 µM,63.51
same,FPD measurement,[5]; [12],5 Values Out Of 5 Were Excluded Due To Quiescence Or 0 Apdc
same,FPDc,[5]; [12],20.04
same,FPD measurement,[5]; [13],5 Values Out Of 5 Were Excluded Due To Quiescence Or 0 Apdc
same,FPDc,[5]; [13],19.19
same,FPD measurement,[5]; [14],5 Values Out Of 5 Were Excluded Due To Quiescence Or 0 Apdc
same,FPDc,[5]; [14],20.37
same,FPD measurement,"[5]; 1 µM, concentration (um) 1 uM",5 Values Out Of 5 Were Excluded Due To Quiescence Or 0 Apdc
same,FPDc,"[5]; 1 µM, concentration (um) 1 uM",19.11
Cc1cccc(C)c1OCC(C)N (stereo not drawn) [MEXILETINE],FPD measurement,[2]; 0.1 µM,1 Values Out Of 1 Were Excluded Due To Quiescence Or 0 Fpdc
same,FPDc,[2]; 0.1 µM,1 Values Out Of 1 Were Excluded Due To Quiescence Or 0 Fpdc
same,FPD measurement,[2]; 1 µM,1 Values Out Of 1 Were Excluded Due To Quiescence Or 0 Fpdc
same,FPDc,[2]; 1 µM,1 Values Out Of 1 Were Excluded Due To Quiescence Or 0 Fpdc
same,FPD measurement,[2]; 10 µM,1 Values Out Of 1 Were Excluded Due To Quiescence Or 0 Fpdc
same,FPDc,[2]; 10 µM,1 Values Out Of 1 Were Excluded Due To Quiescence Or 0 Fpdc
same,FPD measurement,[2]; 100 µM,1 Values Out Of 1 Were Excluded Due To Quiescence Or 0 Fpdc
same,FPDc,[2]; 100 µM,1 Values Out Of 1 Were Excluded Due To Quiescence Or 0 Fpdc
same,FPDc,[6]; [14],43.08
same,FPDc,"[6]; 1 µM, concentration (um) 1 uM",54.07
same,FPDc,"[6]; 10 µM, concentration (um) 10 uM",64.26
same,FPDc,"[6]; 100 µM, concentration (um) 100 uM",63.72
same,APDc,[3]; 0.1 µM,53
same,FPD measurement,[3]; 0.1 µM,53 FPDc
same,APDc,[3]; 1 µM,57.83
same,FPD measurement,[3]; 1 µM,57.83 FPDc
same,APDc,[3]; 10 µM,63.09
same,FPD measurement,[3]; 10 µM,63.09 FPDc
same,APDc,[3]; 100 µM,74.46
same,FPD measurement,[3]; 100 µM,74.46 FPDc
same,FPDc,[4]; 0.1 µM,67.46
same,FPDc,[4]; 1 µM,77.46
same,FPDc,[4]; 10 µM,87.68
same,FPDc,[4]; 100 µM,95.17
COC(=O)C1=C(C)NC(C)=C(C(=O)OC)C1c1ccccc1[N+](=O)[O-] [NIFEDIPINE],FPD measurement,[2]; 0.001 µM,1 Values Out Of 1 Were Excluded Due To Quiescence Or 0 Fpdc
same,FPDc,[2]; 0.001 µM,1 Values Out Of 1 Were Excluded Due To Quiescence Or 0 Fpdc
same,FPD measurement,[2]; 0.01 µM,1 Values Out Of 1 Were Excluded Due To Quiescence Or 0 Fpdc
same,FPDc,[2]; 0.01 µM,1 Values Out Of 1 Were Excluded Due To Quiescence Or 0 Fpdc
same,FPD measurement,[2]; 0.1 µM,1 Values Out Of 1 Were Excluded Due To Quiescence Or 0 Fpdc
same,FPDc,[2]; 0.1 µM,1 Values Out Of 1 Were Excluded Due To Quiescence Or 0 Fpdc
same,FPD measurement,[2]; 1 µM,1 Values Out Of 1 Were Excluded Due To Quiescence Or 0 Fpdc
same,FPDc,[2]; 1 µM,1 Values Out Of 1 Were Excluded Due To Quiescence Or 0 Fpdc
same,APDc,[3]; 0.001 µM,59.3
same,FPD measurement,[3]; 0.001 µM,59.3 FPDc
same,APDc,[3]; 0.01 µM,57.63
same,FPD measurement,[3]; 0.01 µM,57.63 FPDc
same,APDc,[3]; 0.1 µM,More Than Half The Wells Had A Quiescence Event Or Apdc Readings Of 0
same,FPD measurement,[3]; 0.1 µM,More Than Half The Wells Had A Quiescence Event Or Apdc Readings Of 0
same,APDc,[3]; 1 µM,More Than Half The Wells Had A Quiescence Event Or Apdc Readings Of 0
same,FPD measurement,[3]; 1 µM,More Than Half The Wells Had A Quiescence Event Or Apdc Readings Of 0
same,FPDc,[4]; 0.001 µM,73.26
same,FPDc,[4]; 0.01 µM,70.54
same,FPDc,[4]; 0.1 µM,51.56
same,FPDc,[4]; 1 µM,21.94
same,FPD measurement,[7]; 0.001 µM,50.88 FPDc
same,FPDc,[7]; 0.001 µM,50.88
same,FPD measurement,[7]; 0.01 µM,43.95 FPDc
same,FPDc,[7]; 0.01 µM,43.95
same,FPD measurement,[7]; 0.1 µM,24.94 FPDc
same,FPDc,[7]; 0.1 µM,24.94
same,FPD measurement,[7]; 1 µM,16.23 FPDc
same,FPDc,[7]; 1 µM,16.23
same,FPD measurement,[5]; [12],5 Values Out Of 5 Were Excluded Due To Quiescence Or 0 Apdc
same,FPDc,[5]; [12],21.76
same,FPD measurement,[5]; [13],5 Values Out Of 5 Were Excluded Due To Quiescence Or 0 Apdc
same,FPDc,[5]; [13],17.1
same,FPD measurement,[5]; [14],More Than Half The Wells Had A Quiescence Event Or Apdc Readings Of 0
same,FPDc,[5]; [14],More Than Half The Wells Had A Quiescence Event Or Fpdc Readings Of 0
same,FPD measurement,"[5]; 1 µM, concentration (um) 1 uM",More Than Half The Wells Had A Quiescence Event Or Apdc Readings Of 0
same,FPDc,"[5]; 1 µM, concentration (um) 1 uM",More Than Half The Wells Had A Quiescence Event Or Fpdc Readings Of 0
